Results published in patent US20120172302A1, “COMPOSITION FOR THE TREATMENT OF BENIGN PROSTATE HYPERPLASIA” (priority 2009, published 2012).
Square brackets hold non-standard residues; d marks the D form. Peptide text beside a SMILES is read from it. * marks the point of attachment. dPhe(4-NHCONH2) = NC(=O)Nc1ccc(C[C@@H](N)C(=O)O)cc1; Dihydroorotyl(S) = O=C1C[C@@H](C(=O)*)NC(=O)N1; dPhe(4-Cl) = N[C@H](Cc1ccc(Cl)cc1)C(=O)O; Phe(4-NH2) = Nc1ccc(C[C@H](N)C(=O)O)cc1; d2Nal = N[C@H](Cc1ccc2ccccc2c1)C(=O)O; Lys(iPr) = CC(C)NCCCC[C@H](N)C(=O)O; d3Pal = N[C@H](Cc1cccnc1)C(=O)O

Legend:
patients with BPH [1] = assay: IPSS global quality of life (QoL) question, clinical trial; format: in vivo, men; details: for Percentage of patients feeling delighted, pleased, or mostly satisfied (IPSS Global QoL scores 0-2) / Percentage of patients feeling unhappy or terrible (IPSS Global QoL scores 5 and 6): combined group
Description: For each patient, the following parameters were measured or assessed (using the methods discussed below), at time points of screening (e.g. −7 days) day 0 (“baseline”), day 14, day 28 and day 42:
(§1) After the initial 6-week treatment period of the exploratory study had been completed, a 12-month follow-up period looking at long-term efficacy commenced. Interim data of the main efficacy variables (IPSS, IPSS Global QoL, prostate volume, urinary flow, and post-void residual volume—measured as set out below) after 6 months' follow-up are also presented herein Table 1, 2, 3 FIG. 1b), together with some IPSS data at 9 and 12 months (FIG. 1b).
Included in the IPSS is one item to evaluate QoL (IPSS-global QoL). The Global QoL Question was developed alongside the IPSS and was officially included as part of the IPSS in 1993 when the WHO formally recommended the IPSS for both symptom and QoL assessment. […] This question assesses the degree to which patients find their symptoms bothersome. Patients are asked about how they would feel if they were to spend the rest of their lives with their prostate symptoms just as they are now. The choices for answering this quality of life question ranged from “delighted” (rating=0) to “terrible” (rating=6).

patients with BPH [2] = assay: Prostate volume by transrectal ultrasound, clinical trial; format: in vivo, men
Excerpt: 2] Efficacy Endpoints—the measured Peak Urinary Flow, Post-void Residual Volume, and Prostate Volume.
as §1
The prostate volume was measured by transrectal ultrasound with the patient in lateral position. The prostatic gland was sonicated from two directions perpendicular to one another resulting in three cursor positions set by the urologist. The volume was calculated automatically. The investigations were performed by urologists by methods known in the art.

[3] = in vivo
[4] = Baseline of 6-month follow-up patients, 16+16 mg group, n=6
[5] = Baseline of 6-month follow-up patients, 32+32 mg group, n=7
[6] = Month 6 follow-up, 32 mg group, n=7
[7] = Month 6 follow-up, 64 mg group, n=4
[8] = Month 6 follow-up, 16+16 mg group, n=6
[9] = Month 6 follow-up, 32+32 mg group, n=7

SMILES: CC(=O)N[C@H](Cc1ccc2ccccc2c1)C(=O)N[C@H](Cc1ccc(Cl)cc1)C(=O)N[C@H](Cc1cccnc1)C(=O)N[C@@H](CO)C(=O)N[C@@H](Cc1ccc(NC(=O)[C@@H]2CC(=O)NC(=O)N2)cc1)C(=O)N[C@H](Cc1ccc(NC(N)=O)cc1)C(=O)N[C@@H](CC(C)C)C(=O)N[C@@H](CCCCNC(C)C)C(=O)N1CCC[C@H]1C(=O)N[C@H](C)C(N)=O [Degarelix, D-Alaninamide, N-acetyl-3-(2-naphthalenyl)-D-alanyl-4-chloro-D-phenylalanyl-3-(3-pyridinyl)-D-alanyl-L-seryl-4-[[[(4S)-hexahydro-2,6-dioxo-4-pyrimidinyl]carbonyl]amino]-L-phenylalanyl-4-[(aminocarbonyl)amino]-D-phenylalanyl-L leucyl-N6-(1-methylethyl)-L-lysyl-L-prolyl] (Ac-[d2Nal][dPhe(4-Cl)][d3Pal]S[Phe(4-NH2)](Dihydroorotyl(S))[dPhe(4-NHCONH2)]L[Lys(iPr)]P[dA]-NH2)
- Mean IPSS global QoL score (patients with BPH [1]; [4]): 4.5 (n = 6)
- Mean IPSS global QoL score (patients with BPH [1]; [5]): 4.3 (n = 7)
- Mean IPSS global QoL score (patients with BPH [1]; Baseline, 32 mg group, N=12): 3.8 (1.7)
- Mean IPSS global QoL score (patients with BPH [1]; Baseline, 64 mg group, N=13): 4.7 (1.4)
- Mean IPSS global QoL score (patients with BPH [1]; Baseline, 16+16 mg group, N=13): 4.2 (1.1)
- Mean IPSS global QoL score (patients with BPH [1]; Baseline, 32+32 mg group, N=12): 4.3 (1.3)
- IPSS global QoL mean change from baseline (patients with BPH [1]; Day 42, 32 mg group): −2.1 (3.0)
- Mean IPSS global QoL score (patients with BPH [1]; Day 42, 32 mg group): 1.8 (2.0)
- IPSS global QoL mean change from baseline (patients with BPH [1]; Day 42, 64 mg group): −2.2 (1.6)
- Mean IPSS global QoL score (patients with BPH [1]; Day 42, 64 mg group): 2.5 (1.3)
- IPSS global QoL mean change from baseline (patients with BPH [1]; Day 42, 16+16 mg group): −1.2 (1.4)
- Mean IPSS global QoL score (patients with BPH [1]; Day 42, 16+16 mg group): 2.9 (1.4)
- IPSS global QoL mean change from baseline (patients with BPH [1]; Day 42, 32+32 mg group): −2.4 (1.9)
- Mean IPSS global QoL score (patients with BPH [1]; Day 42, 32+32 mg group): 1.9 (1.6)
- Percentage of patients feeling delighted, pleased, or mostly satisfied (IPSS Global QoL scores 0-2) (patients with BPH [1]; Day 42): 58%
- Percentage of patients feeling unhappy or terrible (IPSS Global QoL scores 5 and 6) (patients with BPH [1]; Day 42): 12%
- IPSS global QoL change from baseline (patients with BPH [1]; [6]): −1.4 (1.1)
- Mean IPSS global QoL score (patients with BPH [1]; [6]): 1.4 (1.5)
- IPSS global QoL change from baseline (patients with BPH [1]; [7]): −0.8 (1.7)
- Mean IPSS global QoL score (patients with BPH [1]; [7]): 3.8 (1.3)
- IPSS global QoL change from baseline (patients with BPH [1]; [8]): −0.3 (0.5)
- Mean IPSS global QoL score (patients with BPH [1]; [8]): 4.2 (1.5)
- IPSS global QoL change from baseline (patients with BPH [1]; [9]): −2.7 (2.1)
- Mean IPSS global QoL score (patients with BPH [1]; [9]): 1.6 (0.8)
- Percentage of patients feeling delighted, pleased, or mostly satisfied (IPSS Global QoL scores 0-2) (patients with BPH [1]; baseline): 8%
- Percentage of patients feeling unhappy or terrible (IPSS Global QoL scores 5 and 6) (patients with BPH [1]; baseline): 48%
- Mean (SD) Prostate Volume (patients with BPH [2]; Baseline of 6-month follow-up patients, 32 mg group, n=7): 45.9 (n = 7) mL
- Mean (SD) Prostate Volume (patients with BPH [2]; Baseline of 6-month follow-up patients, 64 mg group, n=4): 38.7 (n = 4) mL
- Mean (SD) Prostate Volume (patients with BPH [2]; [4]): 40.8 (n = 6) mL
- Mean (SD) Prostate Volume (patients with BPH [2]; [5]): 37.1 (n = 7) mL
- Mean (SD) Prostate Volume (patients with BPH [2]; Baseline, 32 mg group, N=12): 48.7 (21.0) mL
- Mean (SD) Prostate Volume (patients with BPH [2]; Baseline, 64 mg group, N=13): 38.9 (9.0) mL
- Mean (SD) Prostate Volume (patients with BPH [2]; Baseline, 16+16 mg group, N=13): 42.0 (12.1) mL
- Mean (SD) Prostate Volume (patients with BPH [2]; Baseline, 32+32 mg group, N=12): 38.1 (7.1) mL
- Prostate Volume Change from Baseline (patients with BPH [2]; Day 42, 32 mg group): −13.9 (14.7) mL
- Prostate Volume Percentage Change from Baseline (patients with BPH [2]; Day 42, 32 mg group): −25.1 (18.0) %
- Prostate Volume Change from Baseline (patients with BPH [2]; Day 42, 64 mg group): −8.2 (10.2) mL
- Prostate Volume Percentage Change from Baseline (patients with BPH [2]; Day 42, 64 mg group): −19.7 (23.2) %
- Prostate Volume Change from Baseline (patients with BPH [2]; Day 42, 16+16 mg group): −7.5 (7.7) mL
- Prostate Volume Percentage Change from Baseline (patients with BPH [2]; Day 42, 16+16 mg group): −17.0 (16.7) %
- Prostate Volume Change from Baseline (patients with BPH [2]; Day 42, 32+32 mg group): −9.4 (9.3) mL
- Prostate Volume Percentage Change from Baseline (patients with BPH [2]; Day 42, 32+32 mg group): −23.5 (20.9) %
- Prostate Volume Change from Baseline (patients with BPH [2]; [6]): −11.6 (5.1) mL
- Prostate Volume Percentage Change from Baseline (patients with BPH [2]; [6]): −25.6 (8.0) %
- Prostate Volume Change from Baseline (patients with BPH [2]; [7]): −9.7 (10.4) mL
- Prostate Volume Percentage Change from Baseline (patients with BPH [2]; [7]): −21.5 (20.6) %
- Prostate Volume Change from Baseline (patients with BPH [2]; [8]): −11.2 (4.4) mL
- Prostate Volume Percentage Change from Baseline (patients with BPH [2]; [8]): −27.8 (8.7) %
- Prostate Volume Change from Baseline (patients with BPH [2]; [9]): −10.6 (8.8) mL
- Prostate Volume Percentage Change from Baseline (patients with BPH [2]; [9]): −27.1 (17.3) %
- Degarelix Cmax and AUC values [3]: higher Cmax and AUC values
